Measured values as given in patent US12653827B2, “Methods of treating indolent systemic mastocytosis” (Telios Pharma Inc., priority 2024, dated 2026).

Key:
[1] = molecular target: T1, BTK (Homo sapiens, UniProt Q06187); assay: BTK phosphorylation in mast cells (FIG. 19); format: cell-based; parameters: endogenous in cells
[2] = test system: mast cells; assay: Degranulation of mast cells grown from CD34+ blood cells of ISM patients (FIG. 22); format: cell-based; conditions: absence of SCF at the time of stimulation
[3] = molecular target: T1, BTK; assay: pBTK test in ISM-like (+SCF) human mast cells; format: cell-based; parameters: endogenous in cells; host or cells: Primary human mast cells differentiated from bone marrow CD34+ cells of healthy donors, cultured with SCF; conditions: six healthy donors, treated two hours
Method: (§1) Human mast cells were derived from bone marrow CD34+ cells from six healthy donors for up to eight weeks by culturing CD34+ cells in StemSpan SFEM II (Stem Cell Technologies) supplemented with stem cell factor (SCF; 100 ng/mL; R&D System), IL-6 (R&D Systems), IL-3 (R&D Systems) and 1% penicillin/streptomycin (P/S; Gibco) for the first 10 days and in StemSpan SFEM II supplemented with SCF and IL-6 and 1% P/S for the remaining time in culture. […] Supernatant was collected and histamine levels were measured using a Histamine ELISA kit (Eagle Biosciences). […] Percent of activated mast cells was calculated as number of activated mast cells over the total number of mast cells.
Human mast cells were differentiated from bone marrow CD34+ cells from six healthy donors, cultured and sensitized as set forth in Example 4. […] The median fluorescence intensity of phosphorylated BTK was measured. CD63 and histamine levels in these cells were measured and percent activated mast cells were calculated as set forth in Example 4. The percent of stimulated control for pBTK, activated mast cells (CD63+) and histamine levels was calculated. […]

[4] = test system: serum tryptase; assay: Serum tryptase in ISM patients; format: in vivo, human; conditions: 100 mg or 150 mg BID
Method: Also, blood samples were collected at the following timepoints: Cycle 1, Day 1: pre-dose (within 30 minutes prior to the morning dose), 0.5, 1.0, 2.0, 3.0, 4.0, and 6.0 hours (±15 minutes) post-morning dose. Cycle 1, Day 8: pre-dose (within 30 minutes prior to the morning dose) and 2 hours (±15 minutes) post-morning dose. Serum tryptase tests were conducted according to Example 14.
The measurement of serum tryptase can be followed to the procedure described in the literature (McMurray et al., Standardized indolent systemic mastocytosis evaluations across a health care system: implications for screening accuracy, Blood (2024) 144 (4): 408-419). Briefly, the procedure begins with proper patient preparation, avoiding recent physical activity or triggers that could cause mast cell activation. Venous blood samples, preferably drawn when the patient is not experiencing acute symptoms, are collected in serum separator tubes (SSTs) or plain red-top tubes, with approximately 5 mL of blood needed for analysis. After collection, the blood is allowed to clot at room temperature for 30-60 minutes before centrifugation for 10-15 minutes. The serum is then carefully separated from the cells and stored at 2-8° C. for short-term analysis or frozen at −20° C. or lower for long-term storage. […]

[5] = test system: mast cells; assay: Potency across healthy and ISM mast cells (FIG. 16); format: cell-based; conditions: presence of SCF; CD63, CD203, pBTK, histamine, calcium flux
Method: Healthy BM-MC donor 0166 and ISM WB-MC 1061-004 17 Jan. 2024 and 17 Oct. 2024. Experiments performed in the presence of SCF. Sensitization and Stimulation: NP-IgE (100 ng/mL) 18 hrs, NP-BSA (0.5 ng/mL) for 15 min at 37° C. (CD63, CD203, pBTK and histamine) or 4 min at RT (Calcium Flux).

[6] = test system: calcium influx in human mast cells; assay: Calcium flux assay in antigen-stimulated human mast cells; format: cell-based; conditions: treated 2 hours, NP-BSA stimulation
Method: as §1
Compound 128 Inhibits Calcium Signaling in Human Mast Cells. […] The median fluorescence intensity of cytosolic calcium was measured across the stimulation time period and graphed to represent the calcium influx profile. The area under the curve (AUC) of the calcium influx profile was calculated and normalized as a percent of stimulated control. […]

T1 sequence (Q06187 whole entry): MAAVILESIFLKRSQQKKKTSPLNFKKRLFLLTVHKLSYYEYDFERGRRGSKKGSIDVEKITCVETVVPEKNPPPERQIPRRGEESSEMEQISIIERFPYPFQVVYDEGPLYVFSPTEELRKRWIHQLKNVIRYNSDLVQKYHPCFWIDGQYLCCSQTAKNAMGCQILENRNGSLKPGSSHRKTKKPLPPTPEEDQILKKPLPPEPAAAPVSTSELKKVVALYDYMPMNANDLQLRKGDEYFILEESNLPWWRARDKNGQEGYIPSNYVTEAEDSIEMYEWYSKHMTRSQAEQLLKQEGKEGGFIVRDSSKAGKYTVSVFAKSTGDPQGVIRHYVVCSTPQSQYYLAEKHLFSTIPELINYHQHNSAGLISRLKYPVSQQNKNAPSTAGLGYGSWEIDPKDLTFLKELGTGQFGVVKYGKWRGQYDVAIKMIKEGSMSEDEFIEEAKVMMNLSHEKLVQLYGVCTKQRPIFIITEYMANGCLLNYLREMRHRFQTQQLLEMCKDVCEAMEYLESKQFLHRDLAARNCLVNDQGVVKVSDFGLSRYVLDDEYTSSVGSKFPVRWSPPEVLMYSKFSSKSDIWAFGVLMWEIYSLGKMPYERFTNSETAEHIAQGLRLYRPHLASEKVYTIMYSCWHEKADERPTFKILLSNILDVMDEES

C=CC(=O)N1CCC(F)(CNc2ncnc(N)c2-c2ccc(Oc3ccccc3)cc2)CC1 [Compound 128, 1-(4-(((6-amino-5-(4-phenoxyphenyl)pyrimidin-4-yl)amino)methyl)-4-fluoropiperidin-1-yl)prop-2-en-1-one]
potency in inhibiting BTK phosphorylation in mast cells [1]: high potency
degranulation of ISM patient-derived mast cells [2]: inhibited
inhibition of IgE-mediated BTK phosphorylation [3]: potently inhibits
reduction in serum tryptase [4]: effective in reducing serum tryptase levels
potency across healthy mast cells and ISM mast cells [5]: equipotent
mast cells undergoing calcium influx (AUC, percent of stimulated control) ([6]; ISM-like (+SCF) mast cells): less than 7%
mast cells undergoing calcium influx (AUC, percent of stimulated control) ([6]; healthy (−SCF) mast cells): < 3%
